Patent US20240358692A1, “TREATMENT OF SCLERODERMA” (Aisa Pharma, Inc., priority 2023, published 2024)

System: participants with SSc-RP
Assay: SHAQ - Visual Analog Scale - Intestinal Problems
Type: in vivo, human
Parameters: Visual Analog Scale-Intestinal Problems, In Clinic Visit (Day 12), Mean / Visual Analog Scale-Intestinal Problems, In Clinic Visit (Day 12), Median / Visual Analog Scale-Intestinal Problems, Change from Baseline, Mean / Visual Analog Scale-Intestinal Problems, Change from Baseline, Median / SHAQ Visual Analogue Scale - Intestinal Problems, In-Clinic Visit (Day 12), Median: scale not given here
Description: The standard, validated, patient reported outcome measures tool for SSc patients, the Scleroderma Health Assessment Questionnaire (SHAQ), will be used to assess the participant qualify of life. Details are attached in the Appendix. The participant quality of life will be scored, and a disability index calculated for each questionnaire completed by the patient at Screening and each in-clinic visit. The absolute change in participant quality of life from baseline to the end of each dosing period will be calculated similar to frequency data as before.
The standard, validated, patient reported outcome measures tool for SSc patients, the SHAQ, was collected at the time points specified in the study schedules (FIG. 2 and FIGS. 4A and 4B) to assess the participant's quality of life. The SHAQ included a Raynaud's VAS that will also be reported separately.

[1] = Modified ITT Population-Part A, Day 12, dose cilnidipine 20 mg, tadalafil 5 mg, alone or combined as labelled
[2] = Modified ITT Population-Part A, dose cilnidipine 10 mg, tadalafil 5 mg, alone or combined as labelled
[3] = Pooled Cilnidipine (N = 8), Day 12, PP Population, Part A
[4] = pooled Cilnidipine 10 mg and Cilnidipine 10 mg + Tadalafil 5 mg
[5] = pooled Cilnidipine 20 mg and Cilnidipine 20 mg + Tadalafil 5 mg
[6] = pooled cilnidipine 10 mg and 20 mg arms (combination: + tadalafil 5 mg)

COCCOC(=O)C1=C(C)NC(C)=C(C(=O)OC/C=C/c2ccccc2)C1c1cccc([N+](=O)[O-])c1 (stereo not shown) [Cilnidipine]
Visual Analog Scale-Intestinal Problems, Change from Baseline, Mean [1]: 0.300 | Visual Analog Scale-Intestinal Problems, Change from Baseline, Median [1]: 0.300 | Visual Analog Scale-Intestinal Problems, Percent Change from Baseline, Mean [1]: 35.00% | Visual Analog Scale-Intestinal Problems, Percent Change from Baseline, Median [1]: 35.00% | Visual Analog Scale-Intestinal Problems, In Clinic Visit (Day 12), Mean [2]: 1.100 | Visual Analog Scale-Intestinal Problems, In Clinic Visit (Day 12), Median [2]: 0.300 | Visual Analog Scale-Intestinal Problems, In Clinic Visit (Day 12), Median (Modified ITT Population-Part A, dose cilnidipine 20 mg, tadalafil 5 mg, alone or combined as labelled): 1.300 | SHAQ Visual Analogue Scale - Intestinal Problems, In-Clinic Visit (Day 12), Median (Pooled Cilnidipine 10 mg and Cilnidipine 10 mg + Tadalafil 5 mg (N = 9), Day 12, PP Population, Part A): 0.700 | SHAQ Visual Analogue Scale - Intestinal Problems, In-Clinic Visit (Day 12), Median (Pooled Cilnidipine 20 mg and Cilnidipine 20 mg + Tadalafil 5 mg (N = 8), Day 12, PP Population, Part A): 0.100 | SHAQ Visual Analogue Scale - Intestinal Problems, Change from Baseline, Mean (SD) [3]: −0.863 (1.8110) | SHAQ Visual Analogue Scale - Intestinal Problems, In-Clinic Visit (Day 12), Mean (SD) [3]: 0.975 (1.3781) | SHAQ Visual Analogue Scale - Intestinal Problems, Percent Change from Baseline, Mean (SD) [3]: −43.69 (64.404) % | % Δ from baseline, Intestinal Problems mean (Pooled cilnidipine (n=5)): −32.4% | VAS Intestinal Problems Change from Baseline Max [4]: 1.00 | VAS Intestinal Problems Change from Baseline Mean [4]: −1.228 | VAS Intestinal Problems Change from Baseline Median [4]: −0.250 | VAS Intestinal Problems Change from Baseline Min [4]: −4.40, | VAS Intestinal Problems Change from Baseline Q1 [4]: −3.000, | VAS Intestinal Problems Change from Baseline Q3 [4]: 0.000 | VAS Intestinal Problems Day 12 Max [4]: 3.80 | VAS Intestinal Problems Day 12 Median [4]: 0.700 | VAS Intestinal Problems Day 12 Min [4]: 0.00, | VAS Intestinal Problems Day 12 Q1 [4]: 0.000, | VAS Intestinal Problems Day 12 Q3 [4]: 1.900 | VAS Intestinal Problems Percent Change from Baseline Max [4]: 142.9% | VAS Intestinal Problems Percent Change from Baseline Mean [4]: −27.93% | VAS Intestinal Problems Percent Change from Baseline Min [4]: −100.0, % | VAS Intestinal Problems Percent Change from Baseline Q1 [4]: −94.00, % | VAS Intestinal Problems Percent Change from Baseline Q3 [4]: 15.00% | VAS Intestinal Problems Change from Baseline Max [5]: 2.90 | VAS Intestinal Problems Change from Baseline Median [5]: 0.000 | VAS Intestinal Problems Change from Baseline Min [5]: −1.60, | VAS Intestinal Problems Change from Baseline Q1 [5]: −0.300, | VAS Intestinal Problems Change from Baseline Q3 [5]: 0.600 | VAS Intestinal Problems Day 12 Max [5]: 4.50 | VAS Intestinal Problems Day 12 Median [5]: 0.200 | VAS Intestinal Problems Day 12 Min [5]: 0.00, | VAS Intestinal Problems Day 12 Q1 [5]: 0.000, | VAS Intestinal Problems Day 12 Q3 [5]: 2.100 | VAS Intestinal Problems Percent Change from Baseline Max [5]: 181.3% | VAS Intestinal Problems Percent Change from Baseline Median [5]: 30.00% | VAS Intestinal Problems Percent Change from Baseline Min [5]: −100.0, % | VAS Intestinal Problems Percent Change from Baseline Q1 [5]: −88.89, % | VAS Intestinal Problems Percent Change from Baseline Q3 [5]: 40.00% | VAS Intestinal Problems Change from Baseline Max [6]: 0.60 | VAS Intestinal Problems Change from Baseline Median [6]: 0.000 | VAS Intestinal Problems Change from Baseline Min [6]: −4.40, | VAS Intestinal Problems Change from Baseline Q1 [6]: −3.000, | VAS Intestinal Problems Change from Baseline Q3 [6]: 0.300 | VAS Intestinal Problems Day 12 Max [6]: 3.80 | VAS Intestinal Problems Day 12 Median [6]: 0.600 | VAS Intestinal Problems Day 12 Min [6]: 0.00, | VAS Intestinal Problems Day 12 Q1 [6]: 0.000, | VAS Intestinal Problems Day 12 Q3 [6]: 2.100 | VAS Intestinal Problems Percent Change from Baseline Max [6]: 40.0% | VAS Intestinal Problems Percent Change from Baseline Min [6]: −100.0, % | VAS Intestinal Problems Percent Change from Baseline Q1 [6]: −88.00, % | VAS Intestinal Problems Percent Change from Baseline Q3 [6]: 30.00%
